Assays:
Experiment in all cases: relative viability (nuclei count vs DMSO), 5 days (fraction); higher = more cells survive
Quizartinib + Foretinib = compound: CC(C)(C)c1cc(NC(=O)Nc2ccc(-c3cn4c(n3)sc3cc(OCCN5CCOCC5)ccc34)cc2)no1 [Quizartinib] + COc1cc2c(Oc3ccc(NC(=O)C4(C(=O)Nc5ccc(F)cc5)CC4)cc3F)ccnc2cc1OCCCN1CCOCC1 [Foretinib] (partner 0.25 µM)
Procedure, shortened: (§1)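 For relative viability, nuclei counts in treated wells were divided by those in vehicle wells. Lung cancer cell lines had been pin-tool dosed in 1536-well plates the day after seeding and cultured for 5 days, then fixed and stained in one step (final 0.05% Triton X-100, 1% formaldehyde, 1 ug/ml Hoechst) and imaged at 4×. Doses were one drug alone or a fixed anchor-drug dose plus five library-drug doses (not always all listed) in √10 steps, and values are duplicate-plate medians.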

YM155 + Lapatinib = compound: COCC[n+]1c2c(n(Cc3cnccn3)c1C)C(=O)c1ccccc1C2=O [YM155] + CS(=O)(=O)CCNCc1ccc(-c2ccc3ncnc(Nc4ccc(OCc5cccc(F)c5)c(Cl)c4)c3c2)o1 [Lapatinib] (partner 2 µM)
Procedure, shortened: as §1

YM155 + Pemetrexed = compound: COCC[n+]1c2c(n(Cc3cnccn3)c1C)C(=O)c1ccccc1C2=O [YM155] + Nc1nc2[nH]cc(CCc3ccc(C(=O)N[C@@H](CCC(=O)O)C(=O)O)cc3)c2c(=O)[nH]1 [Pemetrexed] (partner 0.2 µM)
Procedure, shortened: as §1

YM155 + OSI-027 = compound: COCC[n+]1c2c(n(Cc3cnccn3)c1C)C(=O)c1ccccc1C2=O [YM155] + COc1cccc2cc(-c3nc([C@H]4CC[C@H](C(=O)O)CC4)n4ncnc(N)c34)[nH]c12 [OSI-027] (partner 0.5 µM)
Procedure, shortened: as §1

| Cell Line | relative viability (Quizartinib + Foretinib; first compound 0.001 µM) | relative viability (Quizartinib + Foretinib; first compound 0.003162 µM) | relative viability (Quizartinib + Foretinib; first compound 0.01 µM) | relative viability (Quizartinib + Foretinib; first compound 0.03162 µM) | relative viability (Quizartinib + Foretinib; first compound 0.1 µM) | relative viability (YM155 + Lapatinib; first compound 0.002 µM) | relative viability (YM155 + Lapatinib; first compound 0.006325 µM) | relative viability (YM155 + Lapatinib; first compound 0.02 µM) | relative viability (YM155 + Lapatinib; first compound 0.06325 µM) | relative viability (YM155 + Pemetrexed; first compound 0.002 µM) | relative viability (YM155 + Pemetrexed; first compound 0.006325 µM) | relative viability (YM155 + Pemetrexed; first compound 0.02 µM) | relative viability (YM155 + Pemetrexed; first compound 0.06325 µM) | relative viability (YM155 + OSI-027; first compound 0.002 µM) | relative viability (YM155 + OSI-027; first compound 0.006325 µM) | relative viability (YM155 + OSI-027; first compound 0.02 µM) | relative viability (YM155 + OSI-027; first compound 0.06325 µM) |
| --- | --- | --- | --- | --- | --- | --- | --- | --- | --- | --- | --- | --- | --- | --- | --- | --- | --- |
| NCI-H322M | 0.86 | 0.939 | 0.939 | 0.851 | 0.954 | 0.601 | 0.628 | 0.509 | 0.585 | 0.504 | 0.613 | 0.576 | 0.622 | 0.58 | 0.525 | 0.533 | 0.581 |
| NCI-H1975 | 0.936 | 0.89 | 0.869 | 0.843 | 1.14 | 0.701 | 0.774 | 0.856 | 0.175 | 0.26 | 0.258 | 0.302 | 0.167 | 0.596 | 0.742 | 0.67 | 0.541 |
| NCI-H2023 | 0.788 | 0.752 | 0.869 | – | 0.742 | 0.884 | 0.827 | 0.867 | 0.49 | 0.23 | 0.247 | 0.194 | 0.155 | 0.442 | 0.455 | 0.403 | 0.195 |
| COR-L 105 | 0.775 | 0.986 | 1.03 | 1 | 0.964 | 0.33 | 0.353 | 0.337 | 0.368 | 1.01 | 1.04 | 1 | 0.602 | 0.574 | 0.694 | 0.762 | 0.54 |
| NCI-H23 | – | 1.03 | 0.975 | 0.934 | 0.819 | 0.877 | 1.09 | 0.736 | 0.313 | – | 0.655 | 0.646 | 0.549 | 0.498 | 0.66 | 0.599 | 0.522 |

From the supplement of paper PMC10307832
